In patent publication US20140315886A1, “QUINAZOLINES AS THERAPEUTIC COMPOUNDS AND RELATED METHODS OF USE” (OTSUKA PHARMACEUTICAL CO., LTD., priority 2011, published 2014):
Structures can show the parent of a compound that is named as a salt.

Biological target: T1, purified STEP46 enzyme (Homo sapiens, UniProt P54829)
T1 sequence (P54829 197-565 limits assumed): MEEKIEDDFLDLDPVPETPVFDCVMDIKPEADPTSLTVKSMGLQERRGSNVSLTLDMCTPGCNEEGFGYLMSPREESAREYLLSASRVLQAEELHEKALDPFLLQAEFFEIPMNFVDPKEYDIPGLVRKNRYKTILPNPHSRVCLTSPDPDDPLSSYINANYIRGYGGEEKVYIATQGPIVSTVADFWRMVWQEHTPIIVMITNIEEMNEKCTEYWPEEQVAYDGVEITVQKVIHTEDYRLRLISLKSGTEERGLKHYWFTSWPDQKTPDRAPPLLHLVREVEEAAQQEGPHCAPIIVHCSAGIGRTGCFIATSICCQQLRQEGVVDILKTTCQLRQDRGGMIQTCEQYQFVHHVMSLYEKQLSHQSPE
Assay: STEP46 biochemical assay (DiFMUP fluorescence phosphatase assay)
Conditions: DiFMUP 10 μM, read-out: STEP IC50
Experimental: Serial dilutions of compounds were performed in 100% DMSO and 1 uL of compounds were dispensed into 384-well black polystyrene plates (Corning, N.Y.). Compounds were incubated with 24 uL of buffer containing 50 mM Hepes, 1 mM DTT, 0.02% Brij35, 1 ng/well purified STEP46 enzyme for […] at room temperature. The reaction was initiated by addition of 25 uL of DiFMUP (6,8-difluoro-4-methylumbelliferyl phosphate) (InVitrogen, CA) with a final concentration of 10 μM and incubated at 27° C. for 90 mM Final DMSO concentration is 2%. Plates were read with florescence intensity at excitation/emission of 360/460 nm using a PheraStar plate reader (BMG Labtech, NC).
Data were expressed as percentage (%) inhibition of enzyme activity. 0% inhibition is defined as the RFUs (relative fluorescence units) in the absence of compounds and 100% inhibition is defined as RFUs in the absence of STEP46 enzyme. IC50 values of compounds with inhibitory activity against STEP46 were determined by GraphPad Prism (version 4.03) using four parameter logistic equation. Some compounds act as activators. For compounds showing STEP46 enzymatic activation, data are represented as percentage of inhibition but with negative values at three representative concentrations (25, 50 and 100 uM).

IC50	Compound
1 to 10 µM	CC(Nc1nc(-c2cccnc2)nc2ccc(-c3cc(F)cc(F)c3)cc12)c1ccccc1 (stereo not drawn) [Compound 349]
1 to 10 µM	CNc1nc(-c2cccnc2)nc2cc(-c3ccc(C#N)cc3)c(F)cc12 [Compound 559]
1 to 10 µM	CNc1nc(-c2ccc(C)nc2)nc2cc(-c3cc(F)ccc3F)ccc12 [Compound 161]
> 10 µM	CNc1nc(-c2cccnc2)nc2ccc(-c3nnc(C)s3)cc12 [Compound 472]
1 to 10 µM	CNc1nc(-c2cccnc2)nc2c(OC)cc(-c3cccc(F)c3)cc12 [Compound 253]
1 to 10 µM	CC(Nc1nc(-c2cccnc2)nc2ccc(-c3ccc(F)cc3F)cc12)c1ccccc1 (stereo not drawn) [Compound 607]
> 10 µM	CNc1nc(-c2cccnc2)nc2c(F)c(-c3cc4ccccc4s3)ccc12 [Compound 534]
1 to 10 µM	CNc1nc(-c2cccnc2)nc2cc(-c3cccc(F)c3C)ccc12 [Compound 324]
> 10 µM	Nc1nc(-c2cncnc2)nc2ccc(-c3cccc(F)c3)cc12 [Compound 213]
< 1 µM	CNc1nc(-c2cccnc2)nc2ccc(-c3ccc4c(c3)NC(=O)CO4)cc12 [Compound 469]
1 to 10 µM	CNc1nc(-c2cncnc2)nc2cc(-c3cc(F)ccc3F)ccc12 [Compound 155]
1 to 10 µM	Fc1cncc(Nc2nc(-c3cccnc3)nc3cc(Cl)ccc23)c1 [Compound 50]
1 to 10 µM	CNc1nc(-c2ccc(F)nc2)nc2cc(-c3cc(F)ccc3F)ccc12 [Compound 156]
1 to 10 µM	CNc1nc(-c2cccnc2)nc2c(F)cc(-c3cc(F)cc(F)c3)cc12 [Compound 569]
1 to 10 µM	CCOc1ccc2nc(-c3cccnc3)nc(Nc3cncc(F)c3)c2c1 [Compound 47]
< 1 µM	COc1cc(F)ccc1-c1ccc2c(N3CCc4cc(Cl)ccc43)nc(-c3cccnc3)nc2c1 [Compound 110]
1 to 10 µM	CNc1nc(-c2cccnc2)nc2cc(C)c(-c3ccc(F)c(F)c3F)cc12 [Compound 301]
1 to 10 µM	CCOc1ccc2nc(-c3cccnc3)nc(N3CCc4ccc(Cl)cc43)c2c1 [Compound 5]
1 to 10 µM	Cc1ccc2c(c1)CCN2c1nc(-c2cccnc2)nc2ccc(-c3cccc(F)c3F)cc12 [Compound 74]
1 to 10 µM	CNc1nc(-c2cccnc2)nc2ccc(-c3ccc4c(c3)SCC(=O)N4)cc12 [Compound 471]
1 to 10 µM	CNc1nc(-c2cccnc2)nc2cc(-c3cccc(F)c3F)c(F)cc12 [Compound 557]
1 to 10 µM	CNc1nc(-c2cccnc2)nc2cc(-c3cccc(OC)c3F)ccc12 [Compound 215]
< 1 µM	Clc1ccc2c(c1)CCN2c1nc(-c2cccnc2)nc2cc(-c3cncnc3)ccc12 [Compound 101]
1 to 10 µM	CNc1nc(-c2cccnc2)nc2cc(-c3ccc(F)cc3C)ccc12 [Compound 321]

IC50	Compound
1 to 10 µM	Cc1ccc(Nc2nc(-c3cccnc3)nc3ccc(Cl)cc23)nc1 [Compound 57]
1 to 10 µM	CNc1nc(-c2cccnc2)nc2c(F)c(-c3ccccc3F)ccc12 [Compound 513]
1 to 10 µM	Cc1ccc2c(c1)CCN2c1nc(-c2cccnc2)nc2cc(Br)ccc12 [Compound 16]
1 to 10 µM	CNc1nc(-c2cccnc2)nc2cc(-c3cccc(OCC(=O)N(C)C)c3)ccc12 [Compound 138]
1 to 10 µM	COc1ccc2nc(-c3cccnc3)nc(-n3ccc4cccnc43)c2c1 [Compound 41]
1 to 10 µM	CNc1nc(-c2cccnc2F)nc2ccc(-c3cccc(F)c3)cc12 [Compound 214]
< 1 µM	Fc1ccc(-c2ccc3nc(-c4cccnc4)nc(-c4cncs4)c3c2)c(F)c1 [Compound 417]
1 to 10 µM	CNc1nc(-c2cccnc2)nc2c(OC)cc(-c3cccc(F)c3F)cc12 [Compound 194]
1 to 10 µM	CNc1nc(-c2cccnc2)nc2ccc(-c3c(F)cccc3Cl)cc12 [Compound 241]
> 10 µM	Clc1ccc2c(c1)CCN2c1nc(-c2cccnc2)nc2cc(-c3ccccc3Cl)ccc12 [Compound 111]
> 10 µM	CNc1nc(-c2cccnc2)nc2c(C)c(-c3ccccc3C)ccc12 [Compound 297]
> 10 µM	FCCNc1nc(-c2cccnc2)nc2ccc(-c3cccc(F)c3F)cc12 [Compound 406]
1 to 10 µM	CNc1nc(-c2cccnc2)nc2c(F)c(-c3cccc(F)c3F)ccc12 [Compound 515]
< 1 µM	Fc1ccc(-c2ccc3nc(-c4cccnc4)nc(-c4cscn4)c3c2)c(F)c1 [Compound 421, 4-(6-(2,4-difluorophenyl)-2-(pyridin-3-yl)quinazolin-4-yl)thiazole]
1 to 10 µM	CNc1nc(-c2cnccn2)nc2cc(-c3ccccc3F)ccc12 [Compound 391]
< 1 µM	CNc1nc(-c2cccnc2)nc2cc(-c3cc(F)cc(F)c3)c(F)cc12 [Compound 555]
1 to 10 µM	CNc1nc(-c2cccnc2)nc2cc(-c3cc(F)cc(OCC(=O)N(C)C)c3)ccc12 [Compound 143]
> 10 µM	CN(C)c1nc(-c2cccnc2)nc2ccc(-c3ccc(C4CC4)cc3)cc12 [Compound 308]
1 to 10 µM	Fc1ccc(-c2ccc3nc(-c4cccnc4)nc(N4CCc5cc(Cl)ccc54)c3c2)c(F)c1 [Compound 72]
1 to 10 µM	CNc1nc(-c2cccnc2)nc2cc(Cl)c(-c3ccc(F)cc3F)cc12 [Compound 246]
1 to 10 µM	CNc1nc(-c2cccnc2)nc2ccc(-c3ccc(CO)cc3)cc12 [Compound 173]
1 to 10 µM	CNc1nc(-c2cccnc2)nc2c(-c3cccc(C#N)c3)ccc(OC)c12 [Compound 489, 3—(5-methoxy-4-(methylamino)-2-(pyridin-3-yl)quinazolin-8-yl)benzonitrile dihydrochloride]
< 1 µM	Clc1ccc2c(c1)CCN2c1nc(-c2cccnc2)nc2cc(-c3cccnc3)ccc12 [Compound 99]
1 to 10 µM	CNc1nc(-c2cccnc2)nc2c(OC)cc(-c3ccc(OC)cc3)cc12 [Compound 208]

IC50	Compound
1 to 10 µM	CNc1nc(-c2cccnc2)nc2ccc(-c3ccc4c(c3)C(=O)NCCO4)cc12 [Compound 479]
> 10 µM	Fc1cccc(-c2ccc3nc(-c4cccnc4)nc(NCc4ccccn4)c3c2)c1 [Compound 373]
1 to 10 µM	Nc1nc(-c2cccnc2)nc2cc(-c3cc(F)c(F)c(F)c3)ccc12 [Compound 312]
1 to 10 µM	CNc1nc(-c2cccnc2)nc2c(F)c(-c3ccncc3)ccc12 [Compound 519]
1 to 10 µM	CC(=O)Nc1cccc(-c2ccc3c(N4CCc5cc(Cl)ccc54)nc(-c4cccnc4)nc3c2)c1 [Compound 102]
1 to 10 µM	CNc1nc(-c2cccnc2)nc2c(OC)cc(-c3ccccc3F)cc12 [Compound 254]
1 to 10 µM	Fc1ccc(-c2ccc3nc(-c4cccnc4)nc(-c4ncco4)c3c2)c(F)c1 [Compound 425]
1 to 10 µM	CNc1nc(-c2cccnc2)nc2ccc(-c3cc(OC(F)(F)F)ccc3F)cc12 [Compound 263]
1 to 10 µM	CNc1nc(-c2cccnc2)nc2c(F)c(-c3cccc4sccc34)ccc12 [Compound 538]
> 10 µM	CNc1nc(-c2cccnc2)nc2c(C)c(-c3ccc(C)cc3)ccc12 [Compound 296]
1 to 10 µM	CNc1nc(-c2cccnc2)nc2c(F)cc(-c3cccc(F)c3)cc12 [Compound 563]
1 to 10 µM	Cc1ccc2c(c1)CCN2c1nc(-c2cccnc2)nc2cc(-c3cc(F)ccc3F)ccc12 [Compound 98]
1 to 10 µM	CNc1nc(-c2cccnc2)nc2cc(F)c(-c3cccc(OC)c3)cc12 [Compound 590]
> 10 µM	CNc1nc(-c2cccnc2)nc2cc(-c3ccco3)ccc12 [Compound 317]
1 to 10 µM	c1ccc(CNc2nc(-c3cccnc3)nc3ccc(-c4ccco4)cc23)nc1 [Compound 348]
< 1 µM	Cc1c(-c2cccnc2)ccc2c(N3CCc4cc(Cl)ccc43)nc(-c3cccnc3)nc12 [Compound 114]
1 to 10 µM	CC(Nc1nc(-c2cccnc2)nc2ccc(-c3ccc(F)c(F)c3)cc12)c1ccccc1 (stereo not drawn) [Compound 350]
1 to 10 µM	CNc1nc(-c2cccnc2)nc2c(F)c(-c3cccs3)ccc12 [Compound 533]
< 1 µM	CNc1nc(-c2cccnc2)nc2c(F)c(-c3cc(F)c(F)c(F)c3)ccc12 [Compound 520]
1 to 10 µM	CCOc1cc(F)cc(-c2ccc3c(NC)nc(-c4cccnc4)nc3c2)c1 [Compound 145]
1 to 10 µM	Cc1cncc(Nc2nc(-c3cccnc3)nc3ccc(Cl)cc23)c1 [Compound 66]
> 10 µM	CNc1nc(-c2cccnc2)nc2ccc(-c3ccc(C(F)(F)F)cc3C(F)(F)F)cc12 [Compound 202]
1 to 10 µM	Fc1ccc(-c2ccc3c(N4CCc5cc(Cl)ccc54)nc(-c4cccnc4)nc3c2)c(F)c1 [Compound 94]
1 to 10 µM	CNc1nc(-c2cccnc2)nc2cc(-c3ccc(OC)cc3F)ccc12 [Compound 218]
